# Test results reported in patent publication US9777005B2 (Takeda Pharmaceutical Company Limited, priority 2012, dated 2017).
# Target: T1, human M1 receptor (hCHRM1) (Homo sapiens, UniProt P11229)
# T1 construct: expressed in transfected cells; host or cells: CHO-K1
# T1 sequence (P11229 1-460): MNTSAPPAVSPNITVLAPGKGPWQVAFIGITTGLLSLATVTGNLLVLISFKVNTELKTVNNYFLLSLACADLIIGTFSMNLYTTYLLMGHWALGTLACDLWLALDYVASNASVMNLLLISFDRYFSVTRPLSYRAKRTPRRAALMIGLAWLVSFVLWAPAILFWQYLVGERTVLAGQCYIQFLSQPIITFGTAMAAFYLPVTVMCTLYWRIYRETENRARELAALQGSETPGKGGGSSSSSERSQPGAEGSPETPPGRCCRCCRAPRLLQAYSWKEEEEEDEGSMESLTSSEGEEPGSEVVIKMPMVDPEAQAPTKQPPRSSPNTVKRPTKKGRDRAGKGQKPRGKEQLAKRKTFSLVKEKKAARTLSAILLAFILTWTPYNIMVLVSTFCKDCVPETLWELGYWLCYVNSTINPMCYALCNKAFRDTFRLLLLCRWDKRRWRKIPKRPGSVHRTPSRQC
# Experiment: Measurement of M1 receptor positive allosteric modulator (M1PAM) activity, calcium fluorescence (FLIPRtetra) in CHO-K1 cells in the presence of acetylcholine at EC20
# Type: cell-based
# Conditions: in the presence of acetylcholine at EC20 (final 0.6 nM), CHO-K1 cells expressing hCHRM1; for EC50: inflection point of M1PAM activity, read-out: IP value; for activity (%) at 10 μM: test compound 10 μM
# Summary of the method: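 PAM activity was measured as calcium flux by FLIPRtetra over 1 min after co-addition of compound and EC20 acetylcholine (final 0.6 nM) to Fluo-4-loaded hCHRM1 CHO-K1 cells. The response was scaled between DMSO (0%) and 1 μM acetylcholine (100%), and the inflection point of the concentration curve gives the IP value.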
SMILES,EC50 [µM],activity (%) at 10 μM [%]
"Cn1cc(-c2ccc(CN3Cc4ccnc(OCC5CC5)c4C3=O)c(F)c2)nn1 [Example 331, 4-(cyclopropylmethoxy)-2-(2-fluoro-4-(1-methyl-TH-1,2,3-triazol-4-yl)benzyl)-1,2-dihydro-3H-pyrrolo[3,4-c]pyridin-3-one]",0.016,104
"Cn1cc(-c2ccc(CN3Cc4ccnc(OCc5ccccc5F)c4C3=O)cc2)nn1 [Example 332, 4-((2-fluorobenzyl)oxy)-2-(4-(1-methyl-1H-1,2,3-triazol-4-yl)benzyl)-1,2-dihydro-3H-pyrrolo[3,4-c]pyridin-3-one]",0.017,106
"O=C1c2c(ccnc2OCC2CCCO2)CN1Cc1ccc(-c2cc[nH]n2)cc1 (stereo not drawn) [Example 333, 2-(4-(1H-pyrazol-3-yl)benzyl)-4-((tetrahydrofuran-2-yl)methoxy)-1,2-dihydro-3H-pyrrolo[3,4-c]pyridin-3-one]",0.021,114
"CC(Oc1nccc2c1C(=O)N(Cc1ccc(-c3cn(C)nn3)cc1F)C2)c1ccccc1F (stereo not drawn) [Example 334, 2-(2-fluoro-4-(1-methyl-1H-1,2,3-triazol-4-yl)benzyl)-4-(1-(2-fluorophenyl)ethoxy)-1,2-dihydro-3H-pyrrolo[3,4-c]pyridin-3-one]",0.065,99
"Cn1cc(-c2ccc(CN3Cc4ccnc(OC5CCC5)c4C3=O)cc2)nn1 [Example 335, 4-(cyclobutyloxy)-2-(4-(1-methyl-1H-1,2,3-triazol-4-yl)benzyl)-1,2-dihydro-3H-pyrrolo[3,4-c]pyridin-3-one]",0.057,98
"Cn1cc(-c2ccc(CN3Cc4ccnc(OCc5ccc(F)cc5F)c4C3=O)cc2)nn1 [Example 336, 4-((2,4-difluorobenzyl)oxy)-2-(4-(1-methyl-1H-1,2,3-triazol-4-yl)benzyl)-1,2-dihydro-3H-pyrrolo[3,4-c]pyridin-3-one]",0.022,106
"Cn1cc(-c2ccc(CN3Cc4ccnc(OCC5CC5)c4C3=O)cc2)nn1 [Example 337, 4-(cyclopropylmethoxy)-2-(4-(1-methyl-1H-1,2,3-triazol-4-yl)benzyl)-1,2-dihydro-3H-pyrrolo[3,4-c]pyridin-3-one]",0.049,92
"Cn1cc(-c2ccc(CN3Cc4ccnc(OC5CCC5)c4C3=O)c(F)c2)nn1 [Example 338, 4-(cyclobutyloxy)-2-(2-fluoro-4-(1-methyl-1H-1,2,3-triazol-4-yl)benzyl)-1,2-dihydro-3H-pyrrolo[3,4-c]pyridin-3-one]",0.019,98
"Cc1cc(-c2ccc(CN3Cc4ccnc(OCC5CC5)c4C3=O)cc2)ccn1 [Example 339, 4-(cyclopropylmethoxy)-2-(4-(2-methylpyridin-4-yl)benzyl)-1,2-dihydro-3H-pyrrolo[3,4-c]pyridin-3-one]",0.07,106
"Cn1cc(-c2ccc(CN3Cc4ncnc(OCc5ccc(F)cc5F)c4C3=O)cc2)nn1 [Example 340, 4-((2,4-difluorobenzyl)oxy)-6-(4-(1-methyl-1H-1,2,3-triazol-4-yl)benzyl)-6,7-dihydro-5H-pyrrolo[3,4-d]pyrimidin-5-one]",0.0038,106
"Cc1nn(C)cc1-c1ccc(CN2Cc3ccnc(OCC4(C)CC4)c3C2=O)c(F)c1 [Example 341, 2-(4-(1,3-dimethyl-1H-pyrazol-4-yl)-2-fluorobenzyl)-4-((1-methylcyclopropyl)methoxy)-1,2-dihydro-3H-pyrrolo[3,4-c]pyridin-3-one]",0.063,93
"Cn1ccc(-c2ccc(CN3Cc4ccnc(OCc5ccccc5F)c4C3=O)c(F)c2)n1 [Example 342, 4-((2-fluorobenzyl)oxy)-2-(2-fluoro-4-(1-methyl-1H-pyrazol-3-yl)benzyl)-1,2-dihydro-3H-pyrrolo[3,4-c]pyridin-3-one]",0.073,96
"Cc1nn(C)cc1-c1ccc(CN2Cc3ccnc(OCc4ccccc4F)c3C2=O)c(F)c1 [Example 343, 2-(4-(1,3-dimethyl-1H-pyrazol-4-yl)-2-fluorobenzyl)-4-((2-fluorobenzyl)oxy)-1,2-dihydro-3H-pyrrolo[3,4-c]pyridin-3-one]",0.029,94
"Cc1cc(-c2ccc(CN3Cc4ccnc(OCc5ccccc5F)c4C3=O)c(F)c2)cnn1 [Example 344, 4-((2-fluorobenzyl)oxy)-2-(2-fluoro-4-(6-methylpyridazin-4-yl)benzyl)-1,2-dihydro-3H-pyrrolo[3,4-c]pyridin-3-one]",0.055,97
"Cc1nn(C)cc1-c1ccc(CN2Cc3ccnc(OC4CCc5cccnc54)c3C2=O)c(F)c1 (stereo not drawn) [Example 346, 4-(6,7-dihydro-5H-cyclopenta[b]pyridin-7-yloxy)-2-(4-(1,3-dimethyl-1H-pyrazol-4-yl)-2-fluorobenzyl)-1,2-dihydro-3H-pyrrolo[3,4-c]pyridin-3-one]",0.0021,85
"Cc1nn(C)cc1-c1ccc(CN2Cc3ccnc(OCC(F)(F)c4ccccn4)c3C2=O)c(F)c1 [Example 347, 4-(2,2-difluoro-2-(pyridin-2-yl)ethoxy)-2-(4-(1,3-dimethyl-1H-pyrazol-4-yl)-2-fluorobenzyl)-1,2-dihydro-3H-pyrrolo[3,4-c]pyridin-3-one]",0.01,97
"Cn1cc(-c2ccc(CN3Cc4ccnc(OC5CCC5)c4C3=O)cc2)cn1 [Example 348, 4-(cyclobutyloxy)-2-(4-(1-methyl-1H-pyrazol-4-yl)benzyl)-1,2-dihydro-3H-pyrrolo[3,4-c]pyridin-3-one]",0.074,97
"Cn1cc(-c2ccc(CN3Cc4ccnc(OC5c6ncccc6CC5(C)C)c4C3=O)cc2)cn1 (stereo not drawn) [Example 349, 4-((6,6-dimethyl-6,7-dihydro-5H-cyclopenta[b]pyridin-7-yl)oxy)-2-(4-(1-methyl-1H-pyrazol-4-yl)benzyl)-1,2-dihydro-3H-pyrrolo[3,4-c]pyridin-3-one]",0.012,104
"Cc1cc(-c2ccc(CN3Cc4cccc(OCC5CCCO5)c4C3=O)cc2)ccn1.Cl (stereo not drawn) [Example 353, 2-(4-(2-methylpyridin-4-yl)benzyl)-7-((tetrahydrofuran-2-yl)methoxy)isoindolin-1-one hydrochloride]",0.046,97
"Cc1nn(C)cc1-c1ccc(CN2Cc3cccc(OCC45CCC(CC4)O5)c3C2=O)cc1 [Example 354, 2-(4-(1,3-dimethyl-1H-pyrazol-4-yl)benzyl)-7-((7-oxabicyclo[2.2.1]hept-1-yl)methoxy)isoindolin-1-one]",0.27,93
"Cc1cc(-c2ccc(CN3Cc4cccc(OCC5CCCO5)c4C3=O)cc2)cnn1 (stereo not drawn) [Example 356, 2-(4-(6-methylpyridazin-4-yl)benzyl)-7-((tetrahydrofuran-2-yl)methoxy)isoindolin-1-one]",0.049,101
"COc1cccc(F)c1Oc1nccc2c1C(=O)N(Cc1ccc(-c3cn(C)nc3C)cc1)C2 [Example 357, 2-(4-(1,3-dimethyl-1H-pyrazol-4-yl)benzyl)-4-(2-fluoro-6-methoxyphenoxy)-1,2-dihydro-3H-pyrrolo[3,4-c]pyridin-3-one]",0.051,90
"Cc1cc(-c2ccc(CN3Cc4ccnc(Oc5c(C)cc(F)cc5F)c4C3=O)cc2)cnn1 [Example 358, 4-(2,4-difluoro-6-methylphenoxy)-2-(4-(6-methylpyridazin-4-yl)benzyl)-1,2-dihydro-3H-pyrrolo[3,4-c]pyridin-3-one]",0.077,91
"Cc1cc(F)cc(F)c1Oc1nccc2c1C(=O)N(Cc1ccc(-c3ccn(C)n3)cc1)C2 [Example 359, 4-(2,4-difluoro-6-methylphenoxy)-2-(4-(1-methyl-1H-pyrazol-3-yl)benzyl)-1,2-dihydro-3H-pyrrolo[3,4-c]pyridin-3-one]",0.093,96
"COc1cccc(F)c1Oc1nccc2c1C(=O)N(Cc1ccc(-c3cnn(C)c3)cc1)C2 [Example 360, 4-(2-fluoro-6-methoxyphenoxy)-2-(4-(1-methyl-1H-pyrazol-4-yl)benzyl)-1,2-dihydro-3H-pyrrolo[3,4-c]pyridin-3-one]",0.072,105
"Cc1cc(-c2ccc(CN3Cc4ccnc(Oc5c(F)cc(F)cc5C5CC5)c4C3=O)cc2)cnn1 [Example 361, 4-(2-cyclopropyl-4,6-difluorophenoxy)-2-(4-(6-methylpyridazin-4-yl)benzyl)-1,2-dihydro-3H-pyrrolo[3,4-c]pyridin-3-one]",0.076,100
"Cn1cc(-c2ccc(CN3Cc4ccnc(Oc5ccc(OC(F)(F)F)cc5F)c4C3=O)cc2)cn1 [Example 362, 4-(2-fluoro-4-(trifluoromethoxy)phenoxy)-2-(4-(1-methyl-1H-pyrazol-4-yl)benzyl)-1,2-dihydro-3H-pyrrolo[3,4-c]pyridin-3-one]",0.03,98
